In paper PMC10447463, “Data-mining unveils structure–property–activity correlation of viral infectivity enhancing self-assembling peptides” (Nature Communications, 2023):
“And” between values parts separate entries of the source, which are not always exact repeats. Identical values can stand only once. Like-named read-outs stand apart in the source and are kept apart here.

Legend:
[1] = test system: HIV-1 infection of TZM-bl cells; assay: HIV-1 infectivity enhancement assay, β-galactosidase luminescence; type: cell-based; details: for Rel-to EFC / n-fold to virus: Fig S8 panels B, D; for Log10 Inf. rel. to EF-C: log10 of HIV-1 infection of TZM-bl cells relative to EF-C, Fig S15 source data, asymmetric std dev errors
[2] = type: physicochemical; details: STD prep
[3] = type: physicochemical; details: for Tht category (> 1.5 to blank = +): category 1/0
Summary of the method: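 Fibrils (1 mg/mL solution) were mixed with 50 µM ThT in PBS for 15 min at RT, and fluorescence was read at λex 440/λem 488 nm against a PBS blank, as a triplicate mean ± SD. Zeta potential came from electrophoretic mobility (Smoluchowski) after 1 d aggregation at 1 mg/mL in PBS pH 7.4, diluted into 1 mM KCl.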

[4] = β-sheet content by ATR-FT-IR; type: physicochemical
Summary of the method: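 Conversion rate: fluorescamine fluorescence (ex 365/em 470 nm, 20 min RT) of 3 kDa filtrate versus unfiltered PNF, CR = 100 − 100 × filtrate/original intensity, triplicates. β-sheet content came from ATR FT-IR of lyophilized 1 mg/mL PNF powder, 64 scans.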

[5] = Feb2021, 1.3 µM value relative to virus only (0 µM)
[6] = Feb2021, Log10 of infectivity relative to EF-C
[7] = Feb2021, n-fold enhancement relative to EF-C
[8] = Feb2021, n-fold infectivity relative to EF-C
[9] = Feb2021, unrounded values of the 1.3 µM column
[10] = Feb2021 run, infectivity n-fold relative to virus alone
[11] = Feb2021 run, log10 of infectivity relative to EF-C
[12] = Feb2021 run, n-fold infectivity relative to EF-C
[13] = infectivity enhancement relative to EF-C
[14] = infectivity n-fold relative to virus alone
[15] = infectivity class (low / medium / high) of each library peptide, main list in c1-c6, same classes repeated in sub-lists of sequences containing the hydrophobicity/charge patterns P+,H0,P+,H0,P0,H0,P0, P+,H0,P0,H0,P0,H0,P0, P+,H0,P0,H0
[16] = infectivity class (low / medium / high) of the peptide in the sequence-pattern analysis, Fig. S22-A4, class limits not given
[17] = ThT fluorescence relative to blank (42.1851851851852 a.u.)
[18] = relative to blank 42.1851851851852 a.u.
[19] = Feb2021, log10 of infectivity relative to EF-C
[20] = Feb2021, figures match the 1.3 µM column
[21] = Feb2021, infectivity enhancement relative to EF-C
[22] = Feb2021, infectivity relative to virus only
[23] = ThT fluorescence relative to blank, blank = 42.1851851851852

Substance	n-fold to virus (Feb2021) [1, 5]	Log10 of Rel to EFC (Feb2021) [1, 6]	Rel-to EFC (Feb-2021) [1, 7]	Rel-to EFC (Feb-2021) [1, 8]	Absolute Infectivity / RLU /s (Feb2021) [1, 9]	n-fold to virus (Feb2021) [1, 10]	Log10 of Rel to EFC (Feb2021) [1, 11]	Rel-to EFC (Feb-2021) [1, 12]	Rel-to EFC [1, 13]	n-fold to virus [1, 14]	infectivity [1, 15]	infectivity [1, 16]	Log10 Inf. rel. to EF-C [1]	TEM: 1= fibrils, 0= aggregates (micelle), 0.5 = aggregates and fibrils, -1 = nothing obersved, STD prep [2]	Tht rel to blank (42.1851851851852) [3, 17]	Tht category (> 1.5 to blank = +) [3]	Tht rel to blank (42.1851851851852) [3, 18]	FTIR ß-sheet content/ % [4]	FTIR ß-sheet content/ % ([4]; ATR-FT-IR)	Log10 of Rel to EFC (Feb2021) [1, 19]	other results
QCKIKIQINMWQ [EF-C opt]	43.54	0.01546	1.036	1.036	21221.11111 RLU /s	43.54	0.01546	1.036	1.036	43.54	high	high	0.01546	1	9.054	1 (ThT. Cat is 1, if Rel. ThT >2)	9.054	48.38%	48% and 48.38%		
CRFRFQF [CN10]	14.45			0.3439	7508 RLU /s						medium		-0.4635	1		1 (ThT. Cat is 1, if Rel. ThT >2)	3.455		39.77%	-0.4635	
QCKFKQFF [CK12]		-1.907		0.01239		0.5204	-1.907	0.01239			low		-1.907	1	2.349	1 (ThT. Cat is 1, if Rel. ThT >2)	2.349		0%		Absolute Infectivity / RLU /s (Feb2021) [1, 20]: 170 RLU /s; Rel-to EFC (Feb-2021) [1, 21]: 0.01239; n-fold to virus (Feb2021) [1, 22]: 0.5204; Tht rel to blank (42.1851851851852) [3, 23]: 2.349
KLKLQLL [TG4 / (KM2)]		-2.156		0.006983							low	low	-2.156	1	0.8415	0 (ThT-inactive (N-Fold <2))			0%		Absolute Infectivity / RLU /s (Feb2021) [1, 20]: 163.3 RLU /s; Rel-to EFC (Feb-2021) [1, 21]: 0.006983; n-fold to virus (Feb2021) [1, 22]: 0.2934; Tht rel to blank (42.1851851851852) [3, 23]: 0.8415
CSISIQI [TM141]	2.35			0.05593	3087 RLU /s				0.05593	2.35		low	-1.252	1		1 (ThT. Cat is 1, if Rel. ThT >2)	15.04		58.57%	-1.252	
CKFKFQFNM [BL3]	52.19	0.09417	1.242	1.242	28183.33333 RLU /s	52.19	0.09417	1.242	1.242	52.19	high	high	0.09417	1	2.383	1 (ThT. Cat is 1, if Rel. ThT >2)	2.383	41%	41%		
